Assay results reported in patent publication US8207321B2, “Method of obtaining idolocarbazoles using biosynthetic rebeccamycin genes” (Universidad De Oviedo, priority 2001, dated 2012).

Legend:
S. albus J1074/pKC505 = test: Paper disc growth inhibition by exogenously added rebeccamycin, control strain; type: cell-based, Streptomyces albus; details: 100 μg rebeccamycin on paper disc, Bennett's agar, 28° C. for 4 days
Description: (§1) Therefore, cosmids 14E8 and 17A12, which conferred the ability to produce rebeccamycin, should also confer resistance to rebeccamycin. In order to confirm this point, we studied the effect of exogenously added rebeccamycin on the growth of S. albus J1074/14E8 and control strain S. albus J1074/pKC505. For this purpose, spores of each strain were used to inoculate plates of Bennett's agar (Kieser et al. Practical Streptomyces genetics, The John Innes Foundation, Norwich, UK, 2000) containing 25 μg/ml apramycin. Different amounts of rebeccamycin (dissolved in acetone) were added to paper discs placed on this pre-seeded medium. The plates were left at 4° C. for an hour to allow diffusion of the rebeccamycin solution, and then they were incubated at 28° C. for 4 days.

S. albus J1074/14E8 = test: Paper disc growth inhibition by exogenously added rebeccamycin, strain with cosmid 14E8; type: cell-based, Streptomyces albus; details: Bennett's agar, 28° C. for 4 days
Description: as §1

S. albus J1074 = test: Growth inhibition of Streptomyces spp.; type: cell-based, Streptomyces albus
Staphylococcus aureus = details: cited from earlier work
Micrococcus luteus = details: cited from earlier work
Streptococcus faecalis = details: cited from earlier work
[1] = test system: several tumors implanted in mice; details: cited from earlier work
several tumor cell lines = details: cited from earlier work

Compound: CO[C@H]1[C@H](O)[C@@H](O)[C@H](n2c3c(Cl)cccc3c3c4c(c5c6cccc(Cl)c6[nH]c5c32)C(=O)NC4=O)O[C@@H]1CO [Rebeccamycin]
- growth of S. albus J1074/pKC505 (S. albus J1074/pKC505): totally inhibited
- growth of S. albus J1074/14E8 (S. albus J1074/14E8; 100 μg rebeccamycin on paper disc): fully resistant
- growth of S. albus J1074/14E8 (S. albus J1074/14E8; 200 μg rebeccamycin on paper disc): fully resistant
- inhibition of growth of Streptomyces spp. including S. albus J1074 (S. albus J1074): weak inhibition of growth
- antibacterial activity (Staphylococcus aureus): antibacterial activity
- antibacterial activity (Micrococcus luteus): antibacterial activity
- antibacterial activity (Streptococcus faecalis): antibacterial activity
- antitumor activity in vivo [1]: antitumor activity
- antitumor activity in vitro (several tumor cell lines): antitumor activity
